Test results from US10294202B2, “Pyrrolidinones as herbicides” (FMC Corporation, priority 2013, dated 2019).

How the values were obtained:
[1] = system: barnyardgrass; assay: Test B flooded paddy test; assay type: in vivo, Echinochloa crus-galli; details: 500 g ai/ha, Flood; scale of 0 to 100 where 0 is no effect and 100 is complete control
Summary of the method: (§1)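 Visual ratings from 0, meaning no effect, up to 100, meaning complete control, were made by comparison with untreated controls 13 to 15 days after treatment. Test compounds went straight into floodwater standing 3 cm over the soil of pots holding 2-leaf seedlings.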

[2] = system: corn; assay: Test A pre-/postemergence herbicide test; assay type: in vivo, Zea mays; details: Postemergence
Summary of the method: (§2)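 Seeds in loam–sand blend received preemergence directed soil spray; separately, plants 2–10 cm at one- to two-leaf stage received postemergence spray, both with test chemicals in non-phytotoxic solvent with surfactant. After ~10 days in greenhouse, injury rated visually against untreated controls, 0 (no effect) to 100 (complete control).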

[3] = system: barnyardgrass; assay: Test A pre-/postemergence herbicide test; assay type: in vivo, Echinochloa crus-galli
Summary of the method: as §2

[4] = system: rice; assay: Test B flooded paddy test; assay type: in vivo, Oryza sativa; details: 500 g ai/ha, Flood; scale of 0 to 100 where 0 is no effect and 100 is complete control
Summary of the method: as §1

[5] = system: ryegrass, Italian; assay: Test A pre-/postemergence herbicide test; assay type: in vivo, Lolium multiflorum
Summary of the method: as §2

[6] = system: pigweed; assay: Test A pre-/postemergence herbicide test; assay type: in vivo, Amaranthus retroflexus
Summary of the method: as §2

[7] = system: ducksalad; assay: Test B flooded paddy test; assay type: in vivo, Heteranthera limosa; details: 500 g ai/ha, Flood; scale of 0 to 100 where 0 is no effect and 100 is complete control
Summary of the method: as §1

[8] = system: wheat; assay: Test A pre-/postemergence herbicide test; assay type: in vivo, Triticum aestivum; details: Postemergence
Summary of the method: as §2

[9] = system: kochia; assay: Test A pre-/postemergence herbicide test; assay type: in vivo, Kochia scoparia
Summary of the method: as §2

[10] = system: sedge, umbrella; assay: Test B flooded paddy test; assay type: in vivo, Cyperus difformis; details: 500 g ai/ha, Flood; scale of 0 to 100 where 0 is no effect and 100 is complete control
Summary of the method: as §1

[11] = system: ragweed; assay: Test A pre-/postemergence herbicide test; assay type: in vivo, Ambrosia elatior
Summary of the method: as §2

[12] = system: galium; assay: Test A postemergence herbicide test; assay type: in vivo, Galium aparine
Summary of the method: (§3)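 Blackgrass and galium grown in pots of loam soil–sand blend, treated postemergence at 2–10 cm height, one- to two-leaf stage. Plants kept in greenhouse ~10 days, then visually rated for injury against untreated controls on a 0–100 scale (0 no effect, 100 complete control).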

[13] = system: giant foxtail; assay: Test A pre-/postemergence herbicide test; assay type: in vivo, Setaria faberii
Summary of the method: as §2

[14] = system: blackgrass; assay: Test A postemergence herbicide test; assay type: in vivo, Alopecurus myosuroides
Summary of the method: as §3

[15] = 125 g ai/ha, visual rating on 0 to 100 scale (0 no effect, 100 complete control), approx. 10 days
[16] = 500 g ai/ha, 0 to 100 scale (0 no effect, 100 complete control)
[17] = Postemergence, 125 g ai/ha, visual rating on 0 to 100 scale (0 no effect, 100 complete control), approx. 10 days
[18] = Postemergence, 500 g ai/ha, 0 to 100 scale (0 no effect, 100 complete control)
[19] = Preemergence, 125 g ai/ha, 0 to 100 scale where 0 is no effect and 100 is complete control
[20] = Preemergence, 500 g ai/ha, visual rating on 0 to 100 scale (0 no effect, 100 complete control)
[21] = 125 g ai/ha, 0 to 100 scale, 0 no effect, 100 complete control
[22] = 125 g ai/ha, visual rating, 0 to 100 scale, 0 no effect, 100 complete control, approximately 10 days, preemergence
[23] = Postemergence, 125 g ai/ha, 0 to 100 scale, 0 no effect, 100 complete control
[24] = preemergence, 500 g ai/ha, 0 to 100 scale

O=C1NCC(c2cccc(C(F)(F)F)c2)C1C(=O)Nc1cccc(C(F)(F)F)c1 (stereo not drawn) [Compound 313]
Plant response rating, Barnyardgrass [1]: 60
Plant response rating, Corn [2, 15]: 0
Plant response rating, Corn [2, 16]: 0
Plant response rating, Barnyardgrass [3, 17]: 20
Plant response rating, Barnyardgrass [3, 18]: 80
Plant response rating, Barnyardgrass [3, 19]: 50
Barnyardgrass plant response rating [3, 20]: 80
Plant response rating, Rice [4]: 0
Plant response rating, Ryegrass, Italian [5, 17]: 0
Plant response rating, Ryegrass, Italian [5, 18]: 0
Plant response rating, Ryegrass, Italian [5, 19]: 0
Ryegrass, Italian plant response rating [5, 20]: 0
Plant response rating, Pigweed [6, 17]: 0
Plant response rating, Pigweed [6, 18]: 0
Plant response rating, Pigweed [6, 19]: 0
Pigweed plant response rating [6, 20]: 0
Plant response rating, Ducksalad [7]: 0
Plant response rating, Wheat [8, 15]: 0
Plant response rating, Wheat [8, 16]: 0
Plant response rating, Kochia [9, 17]: 0
Plant response rating, Kochia [9, 18]: 0
Plant response rating, Kochia [9, 19]: 0
Kochia plant response rating [9, 20]: 0
Plant response rating, Sedge, Umbrella [10]: 0
Plant response rating, Ragweed [11, 17]: 0
Plant response rating, Ragweed [11, 18]: 0
Plant response rating, Ragweed [11, 19]: 0
Ragweed plant response rating [11, 20]: 0
Plant response rating, Galium [12, 15]: 0
Plant response rating, Galium [12, 16]: 0
Plant response rating, Foxtail, Giant [13, 17]: 40
Plant response rating, Foxtail, Giant [13, 18]: 70
Plant response rating, Foxtail, Giant [13, 19]: 30
Foxtail, Giant plant response rating [13, 20]: 80
Plant response rating, Blackgrass [14, 15]: 0
Plant response rating, Blackgrass [14, 16]: 0

O=C1NCC(c2cccc(Oc3ccccc3)c2)C1C(=O)Nc1cccc(F)c1F (stereo not drawn) [Compound 332]
Plant response rating, Barnyardgrass [1]: 40
Plant response rating, Corn [2, 15]: 0
Plant response rating, Corn [2, 16]: 0
Plant response rating, Barnyardgrass [3, 17]: 40
Plant response rating, Barnyardgrass [3, 18]: 50
Plant response rating, Barnyardgrass [3, 19]: 70
Barnyardgrass plant response rating [3, 20]: 80
Plant response rating, Rice [4]: 0
Plant response rating, Ryegrass, Italian [5, 17]: 0
Plant response rating, Ryegrass, Italian [5, 18]: 20
Plant response rating, Ryegrass, Italian [5, 19]: 0
Ryegrass, Italian plant response rating [5, 20]: 0
Plant response rating, Pigweed [6, 17]: 0
Plant response rating, Pigweed [6, 18]: 0
Plant response rating, Pigweed [6, 19]: 0
Pigweed plant response rating [6, 20]: 0
Plant response rating, Ducksalad [7]: 75
Plant response rating, Wheat [8, 15]: 0
Plant response rating, Wheat [8, 16]: 20
Plant response rating, Kochia [9, 17]: 0
Plant response rating, Kochia [9, 18]: 20
Plant response rating, Kochia [9, 19]: 0
Kochia plant response rating [9, 20]: 0
Plant response rating, Sedge, Umbrella [10]: 0
Plant response rating, Ragweed [11, 17]: 0
Plant response rating, Ragweed [11, 18]: 0
Plant response rating, Ragweed [11, 19]: 0
Ragweed plant response rating [11, 20]: 0
Plant response rating, Galium [12, 15]: 0
Plant response rating, Galium [12, 16]: 20
Plant response rating, Foxtail, Giant [13, 17]: 30
Plant response rating, Foxtail, Giant [13, 18]: 80
Plant response rating, Foxtail, Giant [13, 19]: 80
Foxtail, Giant plant response rating [13, 20]: 90
Plant response rating, Blackgrass [14, 15]: 0
Plant response rating, Blackgrass [14, 16]: 0

O=C1NCC(c2cccc(OC(F)(F)C(F)F)c2)C1C(=O)Nc1ccc(F)c(F)c1F (racemic) [Compound 124]
Plant response rating, Barnyardgrass [1]: 40
Plant response rating, Corn [2, 21]: 0
Plant response rating, Corn [2, 16]: 50
Plant response rating, Barnyardgrass [3, 22]: 70
Plant response rating, Barnyardgrass [3, 23]: 60
Plant response rating, Barnyardgrass [3, 18]: 70
Plant response rating, Barnyardgrass ([3]; preemergence, 500 g ai/ha, 0 to 100 scale (0 no effect, 100 complete control)): 80
Plant response rating, Rice [4]: 0
Plant response rating, Ryegrass, Italian [5, 22]: 0
Plant response rating, Ryegrass, Italian [5, 23]: 30
Ryegrass, Italian plant response rating (0 to 100 scale, 0 is no effect, 100 is complete control) ([5]; Postemergence, 500 g ai/ha): 50
Plant response rating, Ryegrass, Italian [5, 24]: 40
Plant response rating, Pigweed [6, 22]: 70
Plant response rating, Pigweed [6, 23]: 60
Pigweed plant response rating (0 to 100 scale, 0 is no effect, 100 is complete control) ([6]; Postemergence, 500 g ai/ha): 70
Plant response rating, Pigweed [6, 24]: 80
Plant response rating, Ducksalad [7]: 100
Plant response rating, Wheat [8, 21]: 30
Wheat plant response rating (0 to 100 scale, 0 is no effect, 100 is complete control) ([8]; 500 g ai/ha): 50
Plant response rating, Kochia [9, 22]: 60
Plant response rating, Kochia [9, 23]: 70
Kochia plant response rating (0 to 100 scale, 0 is no effect, 100 is complete control) ([9]; Postemergence, 500 g ai/ha): 80
Plant response rating, Kochia [9, 24]: 70
Plant response rating, Sedge, Umbrella [10]: 0
Plant response rating, Ragweed [11, 22]: 40
Plant response rating, Ragweed [11, 23]: 40
Ragweed plant response rating (0 to 100 scale, 0 is no effect, 100 is complete control) ([11]; Postemergence, 500 g ai/ha): 70
Plant response rating, Ragweed [11, 24]: 50
Plant response rating, Galium [12, 21]: 70
Galium plant response rating (0 to 100 scale, 0 is no effect, 100 is complete control) ([12]; 500 g ai/ha): 80
Plant response rating, Foxtail, Giant [13, 22]: 80
Plant response rating, Foxtail, Giant [13, 23]: 80
Foxtail, Giant plant response rating (0 to 100 scale, 0 is no effect, 100 is complete control) ([13]; Postemergence, 500 g ai/ha): 90
Plant response rating, Foxtail, Giant [13, 24]: 90
Plant response rating, Blackgrass [14, 21]: 40
Plant response rating, Blackgrass [14, 16]: 70
